Experimental data from US20150274639A1, “METHODS OF USE FOR COMPOSITIONS COMPRISING A BIOCIDAL POLYAMINE” (Curza Global, LLC, priority 2013, published 2015).
“And” between values parts separate entries of the source, which are not always exact repeats. Equal values may be shown once.

Key:
[1] = tested on: P. aeruginosa ATCC 27853 biofilm; assay: MBEC assay (Calgary Biofilm Device), 100% eradication (Example 2); format: cell-based, Pseudomonas aeruginosa; conditions: eradicate 100% of detectable biofilm, listed as PBC-51
Description: (§1) In addition to determining the MIC, the minimum biofilm eradication concentration (MBEC) of PBC-51 was also determined. The MBEC was determined using the MBEC assay, formerly known as the Calgary Biofilm Device, developed by Innovotech. In this instance, the MBEC was defined as the amount of antimicrobial required to eradicate 100% of detectable biofilm after being grown in the MBEC device. To grow the biofilms within this device, 150 μL of solution containing a concentration of 10^5 cells/mL were inoculated into each well of a 96-well plate. A lid containing 96 pegs was placed onto the plate and incubated for 24 hours at 37° C. while being shaken at 110 rpm. Biofilms developed on the surface of the polystyrene pegs within the 96-well plate. After 24 hours, each peg contained between 10^5 and 10^6 cells in well-established biofilms. The lid with pegs was transferred to a 96-well plate that contained 200 μL of varying concentrations of the compound and was incubated at 37° C. for an additional 24 hours. The plate was then sonicated, and the biofilms quantified using a 10-fold dilution series to determine the MBEC.

Columbia blood agar = assay: Hemolytic nature on Columbia blood agar; format: cell-based; conditions: 100 μg/mL, 50 μg/mL and 25 μg/mL; 20 μL on Columbia blood agar, 37° C., 24 hours
Description: In addition to determining the antimicrobial efficacy of the compound, an initial test was performed to determine its hemolytic nature. To do so, the compound was suspended in concentrations of 100 μg/mL, 50 μg/mL and 25 μg/mL. Twenty μL of each concentration was placed onto the surface of Columbia blood agar and incubated at 37° C. for 24 hours.

MRSA biofilm [2] = assay: MBEC assay (Calgary Biofilm Device), 100% eradication (Example 2); format: cell-based, methicillin-resistant Staphylococcus aureus; conditions: eradicate 100% of detectable biofilm, listed as PBC-51
Description: as §1

P. aeruginosa ATCC 27853 = assay: MIC, CLSI M26-A microdilution (Example 2); format: cell-based; conditions: Pseudomonas aeruginosa, ATCC27853, 10^5 to 10^2 cells/mL in 24 hours
Description: (§2) The second test determined the minimum inhibitory concentration (MIC) of the compound against MRSA and P. aeruginosa ATCC 27853. […] This definition was consistent with the Clinical and Laboratory Standards Institute (CLSI). More specifically, the microdilution method as outlined in the M26-A CLSI guideline was used. All tests were performed with cation adjusted Mueller Hinton broth.

[3] = tested on: Pseudomonas aeruginosa ATCC 27853; assay: Zones of inhibition on cation adjusted Mueller Hinton agar (Example 2); format: cell-based; conditions: 50 μL drop on P. aeruginosa lawn, 37° C., 24 hours
Description: (§3) A compound was screened for its ability to create zones of inhibition on cation adjusted Mueller Hinton agar. It is believed that the compound of Example 2 may be represented by the structure disclosed in FIG. 4H. To perform this test, lawns of methicillin-resistant Staphylococcus aureus (MRSA) or Pseudomonas aeruginosa ATCC 27853 were made on cation adjusted Mueller Hinton agar using standard microbiological techniques. Immediately after plating bacteria on agar, a 50 μL drop of the compound was placed onto the agar surface. The compound was tested in duplicate at 100 μg/mL, 50 μg/mL, 25 μg/mL and 10 μg/mL. All plates were incubated at 37° C. for 24 hours.

[4] = tested on: biofilms of MRSA and P. aeruginosa; assay: Visual observation of biofilm dispersal from PEEK membranes; format: cell-based; conditions: 300, 200 and 100 μg/mL
Description: Initial tests based on visual observation were performed to determine the ability of the compound to disperse biofilms. This was done by observing the biofilms of MRSA and P. aeruginosa that had grown on the surface of PEEK membranes after they had been placed in three separate concentrations of the compound (300 μg/mL, 200 μg/mL and 100 μg/mL). Biofilms were observed every 30 minutes to see if they separated from the PEEK membrane.

MRSA biofilm [5] = assay: EBEC on PEEK membranes, 100% eradication (Example 2); format: cell-based, methicillin-resistant Staphylococcus aureus; conditions: PEEK membrane, eradicate all detectable amounts (100%), listed as PBC-51
Description: (§4) The fourth test that was performed was the effective biofilm eradication concentration (EBEC). To determine the EBEC, biofilms of MRSA and P. aeruginosa ATCC 27853 were grown on the surface of PEEK membranes using a previously established protocol. Briefly, 500 mL of brain heart infusion (BHI) broth were inoculated with 10^5 cells/mL of MRSA or P. aeruginosa. BHI broth was placed into a membrane biofilm reactor and placed on a hot plate set at 34° C. for 24 hours with a stir bar rotating at 130 rpm. Following the initial 24-hour growth period, a 10% BHI broth solution was flowed through the reactor at a rate of 6.944 mL/min for another 24 hours. After 48 hours of growth, each PEEK membrane had biofilm growth on it. In this experiment, there were ˜2×10^11 cells of MRSA per PEEK membrane and −2×10^10 cells of P. aeruginosa per PEEK membrane. The EBEC was defined as the concentration of the compound that was required to eradicate all detectable amounts (100%) of bacteria within the biofilms.

MRSA [6] = assay: MIC, CLSI M26-A microdilution (Example 2); format: cell-based, methicillin-resistant Staphylococcus aureus; conditions: Staphylococcus aureus, 10^5 to 10^2 cells/mL in 24 hours
Description: as §2

MRSA [7] = assay: Zones of inhibition on cation adjusted Mueller Hinton agar (Example 2); format: cell-based, methicillin-resistant Staphylococcus aureus; conditions: 50 μL drop on MRSA lawn, 37° C., 24 hours
Description: as §3

[8] = tested on: P. aeruginosa ATCC 27853 biofilm; assay: EBEC on PEEK membranes, 100% eradication (Example 2); format: cell-based, Pseudomonas aeruginosa; conditions: PEEK membrane, eradicate all detectable amounts (100%), listed as PBC-51
Description: as §4

CC(C)(C)OC(=O)NCCCNCCCNCc1cc(CNCCCNCCCN)cc(CNCCCNCCCN)c1 [CZ-51]
MBEC [1]: ~35 μg/mL and ~65.92 μM
hemolytic activity (Columbia blood agar): none of these concentrations displayed hemolytic activity
MBEC (MRSA biofilm [2]): < 25 μg/mL and < 47 μM
MIC (P. aeruginosa ATCC 27853): ~6 µg/mL and ~11.3 µM
concentration at which partial clearing was seen [3]: 25 µg/mL
concentration at which total clearing was seen [3]: 50 µg/mL
biofilm separated from the PEEK membrane by 24 hours [4]: all detectable amounts of biofilm had separated
biofilms separated from the PEEK membrane by 4 hours [4]: approximately half
time at which biofilms began to separate from the PEEK membranes [4]: ≤ 2 h
EBEC (MRSA biofilm [5]): ~250 μg/mL and ~470.88 μM
MIC (MRSA [6]): ~1 µg/mL and ~1.88 µM
concentration at which total clearing was seen (MRSA [7]): 10 µg/mL
EBEC [8]: < 100 μg/mL and < 188.33 μM
